The values below are quoted from earlier work in patent US8034370B2, “Ocular implant made by a double extrusion process” (Allergan, Inc., priority 2003, dated 2011).

Where two headings read alike, the source gives them in different places.

For series [1] the following is noted: after topical administration.
For series [2] the following is noted: in vivo efficacy.

In the case of `C[C@@H]1C[C@H]2[C@@H]3CCC4=CC(=O)C=C[C@]4(C)[C@@]3(F)[C@@H](O)C[C@]2(C)[C@@]1(O)C(=O)CO` [Dexamethasone, pregna-1,4-diene-3,20-dione-9-fluoro-11,17,21-trihydroxy-16-methyl-, (11β,16α)], the “fraction reaching the anterior segment” value in series [1] is reported as “about 1%”. The Solubility result (Ethanol) is listed as “Ethanol: Sparingly soluble”, the Solubility result (Methylene chloride) is recorded as “Methylene chloride: slightly soluble” and the Solubility result (Water) is reported as “Water: practically insoluble”.
Turning to `C[C@]12CCC(=O)C=C1CC[C@@H]1[C@@H]2[C@@H](O)C[C@@]2(C)[C@H]1CC[C@]2(O)C(=O)CO` [hydrocortisone], in series [2], the “potency relative to dexamethasone” value is reported as “approximately twenty five”.
